Data set [1] concerns Phosphorylation of ERK1/2 in AsPC1 cells. Nature of the data set: 4 hour pERK1/2 HTRF Assay. It is filed as cell-based. The note with it: Homo sapiens, ASPC1, read-out: pERK AsPC-1 HTRF (4 hour): Average IC50 (nM); AsPC-1, 4 hour. The method, then: AsPC1 cells were seeded at 20,000 cells/well overnight in 96-well plates, then treated with a 12-point dose response of compounds (Starting dose of 3000 nM and 3-fold dilution) for 4 hours. AsPC1 cells are a K-Ras mutant cell line. Phosphorylation of ERK1/2 on residues Thr202 and Tyr204 were detected using a Homogenous Time-Resolved Fluorescence (HTRF) assay (Cisbio Cat #64ERKPEG). Briefly, ERK phosphorylation was detected using a sandwich assay format using two phospho-ERK specific antibodies, one labelled with EU^3+-Cryptate (donor) and the second with d2 (acceptor). The Fluorescence Resonance Energy Transfer (FRET) towards the d2 acceptor was detected at a wavelength of 665 nm. ERK1/2 phosphorylation levels were normalized to total ERK1/2 protein levels in each well. IC50 values were determined by fitting a variable slope, four parameters curve to the compound concentration to normalized Phospho-ERK1/2 relationship.
A general note: TR-FRET usually uses a lanthanide donor and a delayed reading to cut background.

The target in the next data set is uMEK/BRAF (Homo sapiens (Human), UniProt Q02750). As to the kind of experiment: MEK-RAF Binding Assay (uMEK/BRAF HTRF).
A short description of data set [2]: Cassette pharmacokinetics studies in mice. The note with it: male, Balb/c, plasma; Mouse, PO, 5 mg/kg. In kind it is in vivo. The method, then:
Pharmacokinetics studies were conducted using cassette dosing protocols, with test compounds administered per mouse. Treatment groups were 3 mice (˜6-8 weeks old, ˜20-30 g Balb/c male mice) per route of administration. Compounds were formulated in 5% DMSO and 95% PEG400 with final concentrations of 0.5 mg/mL for IV and PO dosing. Compounds were dosed at 2 mg/kg for IV dosing and 5 mg/kg for PO dosing. Blood samples were withdrawn at 0.083, 0.25, 0.5, 1.0, 2.0, 4.0, 6.0, 8.0, and 24 hours following IV dosing, and 0.25, 0.5, 1.0, 2.0, 4.0, 6.0, 8.0, and 24 hours following PO dosing. Blood samples were centrifuged at 4,000 g for 5 minutes at 4° C. to obtain plasma samples. Plasma samples were diluted with acetonitrile containing internal standard, vortexed for 30 seconds, then centrifuged at 4,000 rpm for 15 minutes at 4° C. The supernatant was diluted with water, and compound concentration was determined by HPLC/MS/MS compared to calibration standards of 0.5-1,000 ng/mL.
Where route is listed as “IV*”, the compound was dosed IV at 1 mg/kg.

Some results are limits rather than exact numbers.

The term IC50 denotes the midpoint of a concentration-inhibition curve. `CCN(C)S(=O)(=O)Nc1cccc(Oc2c(C(=O)NC3CC3)c(Nc3ccc(I)cc3F)n(C)c(=O)c2C)c1Cl` [Compound I-111]: the 50% inhibitory concentration (IC50) in data set [1] was under 100 nM.

“N-cyclopropyl-4-((2,2-dioxido-3,4-dihydro-1H-benzo[c][1,2,6]thiadiazin-7-yl)oxy)-2-((2-fluoro-4-iodophenyl)amino)-1,5-dimethyl-6-oxo-1,6-dihydropyridine-3-carboxamide [Compound I-14]” came in with an IC50 at uMEK/BRAF of 100 to 1000 nM.

Consider `CNS(=O)(=O)Nc1cccc(Oc2c(C(=O)N3CCC3)c(Nc3ccc(I)cc3F)n(C)c(=O)c2C)c1Cl` [Compound I-79], for which the IC50 at uMEK/BRAF was 100 to 1000 nM; in data set [1], under 100 nM.

On to `CNS(=O)(=O)Nc1cccc(Oc2c(C(=O)NCC[C@H](O)CO)c(Nc3ccc(I)cc3F)n(C)c(=O)c2C)c1Cl` [Compound I-118], for which the IC50 in data set [1] was under 100 nM.

Take `Cc1c(Oc2cccc(NS(=O)(=O)N(C)C)c2Cl)c(C(=O)NCC(F)(F)F)c(Nc2ccc(I)cc2F)n(C)c1=O` [Compound I-105]: in data set [1], the IC50 is under 100 nM.

For the compound `Cc1c(Oc2cccc(NS(=O)(=O)N(C)C)c2Cl)c(C(=O)NC2CC2)c(Nc2ccc(I)cc2F)n(C)c1=O` [Compound I-113], the IC50 in data set [1] was under 100 nM.

Regarding `CNS(=O)(=O)Nc1cc(Oc2c(C(=O)NC3CC3)c(Nc3ccc(I)cc3F)n(C)c(=O)c2C)ccc1Cl` [Compound I-19], the half-maximal inhibitory concentration (IC50) at uMEK/BRAF is 100 to 1000 nM.

For the compound `CNS(=O)(=O)Nc1ccc(Oc2c(C(=O)NC3CC3)c(Nc3ccc(I)cc3F)n(C)c(=O)c2C)c(Cl)c1` [Compound I-63], the IC50 (at uMEK/BRAF; in data set [1]) was 100 to 1000 nM in each case.

Consider `CCN(CC)S(=O)(=O)Nc1cccc(Oc2c(C(=O)NC3CC3)c(Nc3ccc(I)cc3F)n(C)c(=O)c2C)c1Cl` [Compound I-110], for which, in data set [1], the IC50 is under 100 nM.

Take `CNS(=O)(=O)Nc1cccc(Oc2c(C(=O)NC3CC3)c(Nc3ccc(I)cc3F)n(C)c(=O)c2C)n1` [Compound I-96]: in data set [1], the IC50 was in the range of 100 to 1000 nM.

Take `CCn1c(Nc2ccc(I)cc2F)c(C(=O)NC2CC2)c(Oc2cccc(NS(=O)(=O)NC)c2Cl)c(C2CC2)c1=O` [Compound I-117]: in data set [1], the IC50 lay in the range of 1000 to 10000 nM.

Turning to `Cc1c(Oc2cccc(NS(=O)(=O)N(C)C3CC3)c2Cl)c(C(=O)NC2CC2)c(Nc2ccc(I)cc2F)n(C)c1=O` [Compound I-102], in data set [1], the IC50 was under 100 nM.

`CCc1c(Oc2cccc(NS(=O)(=O)NC)c2Cl)c(C(=O)NC2CC2)c(Nc2ccc(I)cc2F)n(C)c1=O` [Compound I-92]: the IC50 in data set [1] lay in the range of 100 to 1000 nM.

Take `Cc1c(Oc2cccc(N(C)S(=O)(=O)NC3CC3)c2Cl)c(C(=O)NC2CC2)c(Nc2ccc(I)cc2F)n(C)c1=O` [Compound I-99]: the IC50 in data set [1] was under 100 nM.

As for `Cc1c(Oc2cccc(NS(=O)(=O)N3CC(F)C3)c2Cl)c(C(=O)NC2CC2)c(Nc2ccc(I)cc2F)n(C)c1=O` [Compound I-107], the IC50 in data set [1] is under 100 nM.

As usually defined, the AUC(0-inf) is total exposure, with the tail of the curve extrapolated. High values mean more exposure, low ones less exposure. Usually AUC(0-t) stands for the area under the concentration-time curve up to a stated or last time point. A higher AUC(0-t) goes with more exposure. Usually Cmax stands for the highest concentration seen after dosing. What is called Tmax is the time at which the peak concentration occurs. Usually half-life stands for the time in which the quantity being followed falls by half. A low value points to fast loss. For `CNS(=O)(=O)Nc1cccc(Oc2c(C(=O)N(C)C3CCC3)c(Nc3ccc(I)cc3F)n(C)c(=O)c2C)c1` [Compound I-133], in data set [2], the AUC(0-inf) was determined as 28 ng·h/mL, the AUC(0-t) is 27 ng·h/mL, the Cmax came to 41.2 ng/mL and the Tmax was found to be 0.2 h. In data set [2], this compound had a half-life of 24 min.

`CNS(=O)(=O)Nc1cccc(Nc2c(C(=O)OC3CC3)c(Nc3ccc(I)cc3F)n(C)c(=O)c2C)c1Cl` [Compound I-47]: the IC50 in data set [1] is under 100 nM.

As to `CNS(=O)(=O)Nc1cccc(Oc2c(C(=O)NC3CC3)c(Nc3ccc(I)cc3F)n(C)c(=O)c2C)c1Cl` [Compound I-109], the IC50 in data set [1] is under 100 nM.

Turning to `Cc1c(Oc2cccc(NS(N)(=O)=O)c2Cl)c(C(=O)NC2CC2)c(Nc2ccc(I)cc2F)n(C)c1=O` [Compound I-112], the IC50 in data set [1] was under 100 nM. For the same compound, in data set [2], the AUC(0-inf) was 5830 ng·h/mL, the AUC(0-t) is 5370 ng·h/mL, the peak level (Cmax) was 979 ng/mL and the Tmax was 1.3 h. Besides, the half-life in data set [2] was 136 min.

In the case of `CNS(=O)(=O)Nc1cncc(Oc2c(C(=O)NC3CC3)c(Nc3ccc(I)cc3F)n(C)c(=O)c2C)c1Cl` [Compound I-122], in data set [1], the IC50 lay within 100 to 1000 nM.

Take `CNS(=O)(=O)Nc1cncc(Oc2c(C(=O)NC3CC3)c(Nc3ccc(I)cc3F)n(C)c(=O)c2C)c1OC` [Compound I-116]: the IC50 in data set [1] lay within 1000 to 10000 nM.

As to `Cc1c(Oc2cccc(NS(=O)(=O)N3CCC3)c2C(F)(F)F)c(C(=O)NC2CC2)c(Nc2ccc(I)cc2F)n(C)c1=O` [Compound I-103], the IC50 in data set [1] is under 100 nM.

Consider `CNS(=O)(=O)N(CC(F)(F)F)c1cccc(Oc2c(C(=O)NC3CC3)c(Nc3ccc(I)cc3F)n(C)c(=O)c2C)c1Cl` [Compound I-97], for which, in data set [1], the IC50 is 100 to 1000 nM.

As for `CNS(=O)(=O)N(C)c1cccc(Oc2c(C(=O)NC3CC3)c(Nc3ccc(I)cc3F)n(C)c(=O)c2C)c1Cl` [Compound I-100], the IC50 in data set [1] was under 100 nM.

As to `Cc1c(Oc2cccc(NS(=O)(=O)N3CC(F)C3)c2Cl)c(C(=O)NCC(F)(F)F)c(Nc2ccc(I)cc2F)n(C)c1=O` [Compound I-104], the 50% inhibitory concentration (IC50) in data set [1] was under 100 nM.

Regarding `CNS(=O)(=O)Nc1ccnc(Oc2c(C(=O)NC3CC3)c(Nc3ccc(I)cc3F)n(C)c(=O)c2C)c1Cl` [Compound I-93], the IC50 in data set [1] is under 100 nM.

In the case of `CCc1c(Oc2cccc(NS(=O)(=O)NC)c2Cl)c(C(=O)NC2CC2)c(Nc2ccc(I)cc2F)n(C2CC2)c1=O` [Compound I-120], the IC50 in data set [1] lay in the range of 1000 to 10000 nM.

Regarding `Cc1c(Oc2cccc(N(C3CC3)S(=O)(=O)NC3CC3)c2Cl)c(C(=O)NC2CC2)c(Nc2ccc(I)cc2F)n(C)c1=O` [Compound I-94], in data set [1], the 50% inhibitory concentration (IC50) lay within 100 to 1000 nM.

For the compound `CNS(=O)(=O)Nc1cccc(Oc2c(C(=O)NCC[C@@H](O)CO)c(Nc3ccc(I)cc3F)n(C)c(=O)c2C)c1Cl` [Compound I-119], the IC50 in data set [1] was under 100 nM.

As for `CCN(C1CC1)S(=O)(=O)Nc1cccc(Oc2c(C(=O)NC3CC3)c(Nc3ccc(I)cc3F)n(C)c(=O)c2C)c1Cl` [Compound I-101], the IC50 in data set [1] was under 100 nM.

`CNS(=O)(=O)Nc1cccc(Oc2c(C(=O)NC3CC3)c(Nc3ccc(I)cc3F)n(C)c(=O)c2C)c1C(F)(F)F` [Compound I-37]: in data set [2], the AUC(0-inf) is 12900 ng·h/mL, the area under the curve AUC(0-t) was determined as 12900 ng·h/mL, the Cmax was 1730 ng/mL and the Tmax was 1.7 h. In data set [2], the half-life is 119 min.

As for `CNS(=O)(=O)Nc1cc(C)cc(Oc2c(C(=O)NC3CC3)c(Nc3ccc(I)cc3F)n(C)c(=O)c2C)c1` [Compound I-21], the IC50 at uMEK/BRAF lay in the range of 100 to 1000 nM.

`CNS(=O)(=O)Nc1ccnc(Oc2c(C(=O)NC3CC3)c(Nc3ccc(I)cc3F)n(C)c(=O)c2C)c1OC` [Compound I-115]: in data set [1], the IC50 is under 100 nM.

Consider `Cc1c(Oc2cccc(NS(=O)(=O)N3CCC3)c2Cl)c(C(=O)NC2CC2)c(Nc2ccc(I)cc2F)n(C)c1=O` [Compound I-108], for which the IC50 in data set [1] was under 100 nM.

Consider `Cc1c(Oc2cccc(N(CC(F)(F)F)S(=O)(=O)NC3CC3)c2Cl)c(C(=O)NC2CC2)c(Nc2ccc(I)cc2F)n(C)c1=O` [Compound I-95], for which the IC50 in data set [1] was under 100 nM.

With `Cc1c(Oc2cccc(NS(=O)(=O)N3CCC3)c2Cl)c(C(=O)NCC(F)(F)F)c(Nc2ccc(I)cc2F)n(C)c1=O` [Compound I-106], the IC50 in data set [1] was under 100 nM.

In the case of `CCN(c1cccc(Oc2c(C(=O)NC3CC3)c(Nc3ccc(I)cc3F)n(C)c(=O)c2C)c1Cl)S(=O)(=O)NC1CC1` [Compound I-98], the IC50 in data set [1] was 100 to 1000 nM.

Take `CNS(=O)(=O)Nc1nccc(Oc2c(C(=O)NC3CC3)c(Nc3ccc(I)cc3F)n(C)c(=O)c2C)c1Cl` [Compound I-121]: the IC50 in data set [1] was under 100 nM.

(Values after US20230382863A1, “MEK INHIBITORS AND USES THEREOF” (Ikena Oncology, Inc., priority 2022, published 2023).)
